From patent US20090326072A1, “USE OF 2-(2-NITRO-4-TRIFLUOROMETHYLBENZOYL)-l,3- CYCLOHEXANEDIONE IN THE TREATMENT OF PARKINSON'S DISEASE” (priority 2005, published 2009)
“Also recorded” adds a separate entry of the source. Like-named read-outs stand apart in the source and are kept apart here.

Key:
[1] = molecular target: T1, 4-hydroxyphenyl pyruvate dioxygenase (HPPD) (Rattus norvegicus, UniProt P32755); test: Determination of 4-hydroxyphenyl pyruvate dioxygenase (HPPD) enzyme activity in vitro (rate of oxygen consumption, rat liver cytosol); type: biochemical; settings: for inhibition at 0.1 µM: read-out: % Inhibition at 100 nM
T1 construct: rat liver cytosol (2.7 mg of protein/ml incubate); from tissue; host or cells: rat liver (cytosol, 110,000 g supernatant)
Experimental: The principle of the assay is that 4-hydroxyphenyl pyruvate dioxygenase (HPPD), an enzyme that participates in the catabolism of tyrosine, catalyses the oxidative decarboxylation and rearrangement of 4-hydroxyphenylpyruvate (HPPA) to homogentisate, with the incorporation of both atoms of molecular oxygen into the product.
Rat liver was homogenised in buffer of the following composition; 0.25 M Sucrose, 5.4 mM EDTA, 20 mM Tris base, pH 7.4, (25% homogenate) using 6 passes of a Potter type homogeniser. The homogenate was then centrifuged at 1,800 g for 10 minutes at 4° C., the pellet was discarded and the supernatant centrifuged at 17,000 g for a further 15 minutes at 4° C. The pellet was then discarded and the supernatant centrifuged at 110,000 g for 80 minutes at 4° C. The supernatant containing the HPPD enzyme from this 110,000 g spin was collected and stored frozen at −70° C. and used in the assays of the test compounds (see below).
Prior to the start of the enzymatic reaction by the addition of HPPA substrate, the enzyme and test compound (inhibitor) were incubated together for 3 minutes.
In cases where the effects of several concentrations of an inhibitor were investigated, an IC50 value (the half-maximal inhibitory concentration of test compound) was determined by plotting the data using a non-linear regression curve-fitting program using a GraphPad Prism™ software package.
Data are expressed as mean values from two experiments except where indicated. Where appropriate the values are expressed as the mean±standard deviation.

[2] = system: AMPT rat model of Parkinson's disease; test: AMPT rat model of Parkinson's disease (catalepsy descent latency and centre rearing counts); type: in vivo; settings: for Mean Catalepsy Descent Latency (s) / Mean Centre Rearing Counts: 8 h post AMPT; for reversal of AMPT induced deficits in mean centre rearing counts (in words) / reversal of AMPT induced catalepsy (in words): single oral dose 10 mg/kg, -16 or -1 hours
Experimental: AMPT is a competitive inhibitor of tyrosine hydroxylase. Rats dosed with >150 mg/kg AMPT develop parkinsonian-like behavior and locomotor deficits (e.g. catalepsy and reduced rearing activity) within hours owing to the depletion of striatal dopamine concentration as a consequence of the reduced flux through the dopamine synthetic pathway. […] Indian J. Exp. Biol. 41, 1264-1268).
The effect was compared with appropriate vehicle control groups (oral vehicle was 1% carboxymethylcellulose; CMC) and a group that received a 150 mg/kg i.p. dose of L-dopa.
Eight hours after AMPT (or vehicle) administration rats were assessed for catalepsy and centre rearing activity. During the catalepsy test, the front paws of the rat were placed over a horizontal bar suspended 9 cm off the floor. The time taken for the rat to get off the bar (descent latency) was measured with a maximum time of 3 minutes being allowed. Centre rearing counts were determined over a 1 hour monitoring period using an automated activity monitoring system (AM1053). This system used an array of infrared beams to determine the activity and mobility of each animal. Each cage had 48 infrared beams, 24 on each of two levels arranged in an 8×16, 1″ (25.4 mm) pitch grid. The lower grid measured horizontal x, y movement, whilst the upper grid measured rearing movement. The activity detector operated by counting the number of times the beams changed from unbroken to broken and then incrementing the relevant counters.
These groups were compared to a positive control group (6) dosed with 225 mg/kg AMPT i.p.+150 mg/kg L-dopa i.p. 6.5 hour post AMPT dose. L-dopa was administered with a peripheral dopa decarboxylase inhibitor (benserazide), at 100 mg/kg i.p.
In a second and third series of experiments, the efficacy of eight other HPPD inhibitor test compounds were assessed in the AMPT rat model of Parkinson's disease (Tables 1.5 & 1.6). Male Sprague-Dawley rats (300-350 g) were administered a single i.p. dose of 225 mg/kg AMPT and a single oral dose of 10 mg/kg of the HPPD inhibitor test compound was administered either 1 or 16 hours prior to (−16 or −1 hours) AMPT administration. Behavioral assessment (catalepsy and centre rearing counts) was conducted 8 hours post AMPT administration. The effect was compared with a vehicle control group and a group receiving AMPT alone.

[3] = system: plasma tyrosine; test: Plasma tyrosine concentration kinetic profile in the rat following a single oral dose; type: in vivo; settings: for Plasma Tyrosine Concentration: single oral dose 10 mg/kg; for Plasma tyrosine: single oral dose 2.0 mg/kg
Experimental: The plasma tyrosine concentration kinetic profile in the rat was determined for each of the HPPD inhibitor test compounds by administering a single oral dose to 10-12 week old male Sprague Dawley rats. Compounds 3.20, 3.13 and 3.26 were dosed at 2 mg/kg in 1% carboxymethylcellulose (1% CMC) vehicle, whilst compounds 3.22, 3.12, 3.15, 3.18, 3.23, 3.21, 3.11, 3.01, 3.24 and 3.25 were administered at 10 mg/kg in 1% CMC.
Blood samples to determine plasma tyrosine concentration were obtained at frequent intervals during the first 24 hours post-dose, and at 48 hours post-dose. These samples were either compared with blood samples obtained from control rats which only received an equivalent volume of the vehicle, 1% CMC, or by comparison with control samples obtained from the rats 1 hour prior to dosing with test the compound. Prior to the analysis of the samples for plasma tyrosine concentration, the blood samples were centrifuged at 1800 g for 10 minutes at 4° C. The plasma was collected and then filtered through a centrifugal micro partition device at 1500 g for 30 minutes at 4° C. The filtered plasma was then divided into two aliquots and stored frozen at −70° C. for subsequent gradient reverse phase high performance liquid chromatographic (HPLC) analysis of plasma tyrosine. Aliquots of plasma were analysed by HPLC using a 250×4.6 mm Hichrom S5ODS2 column at 30° C., eluted with a mobile phase of water/acetonitrile/trifluoroacetic acid (950:50:2 v/v/v) at a flow rate of 1 ml/min. Detection was by a diode array detector at 274 nm. Appropriate tyrosine standards were run alongside the samples for calibration purposes.
The plasma tyrosine concentration kinetic profile for the test compounds 3.20, 3.13 and 3.26 are shown at the time points 1, 2, 4, 6, 12, 24 and 48 hours post-dose in Table 1.1. The data shown are the mean±standard deviation (n=4), except for the 6 hour time point where the data were obtained from n=3 rats for the control and 3.26 groups.
The plasma tyrosine concentration kinetic profile for the test compounds 3.22, 3.12, 3.15, 3.18, 3.23, 3.21, 3.11, 3.01, 3.24 and 3.25 are shown at the time points −1 hour (pre-dose control), 1, 3, 6, 12, 24 and 48 hours post-dose, in Tables 1.2 and 1.3. The data shown are the mean±standard deviation (n=3), except for the −1 hour time point with compound 3.23, where n=2 (Table 1.2), and for the 3 and 6 hour time points with compound 3.21, where n=2 (Table 1.3).

[4] = 100 nM test compound, rat liver cytosol, 3 min pre-incubation
[5] = Table 1.6: 225 mg/kg AMPT i.p. + 10 mg/kg oral at -16 hours
[6] = Table 1.6: 225 mg/kg AMPT i.p. + 10 mg/kg oral at -1 hour
[7] = Table 1.5: 225 mg/kg AMPT i.p. + 10 mg/kg oral at -16 hours

T1 sequence (P32755 whole entry): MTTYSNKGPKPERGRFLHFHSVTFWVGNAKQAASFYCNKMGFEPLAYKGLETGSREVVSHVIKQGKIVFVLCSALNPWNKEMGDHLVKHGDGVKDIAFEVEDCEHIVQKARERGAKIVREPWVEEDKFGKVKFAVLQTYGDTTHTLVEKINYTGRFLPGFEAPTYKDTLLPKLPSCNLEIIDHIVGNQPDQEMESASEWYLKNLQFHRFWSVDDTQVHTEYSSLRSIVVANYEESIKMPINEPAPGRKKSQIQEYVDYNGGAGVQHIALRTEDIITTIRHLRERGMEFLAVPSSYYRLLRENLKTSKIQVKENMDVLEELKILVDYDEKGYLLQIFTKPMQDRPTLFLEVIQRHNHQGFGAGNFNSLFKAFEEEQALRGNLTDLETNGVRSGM

`CCn1ncc(C(=O)c2ccc(S(C)(=O)=O)c(OCCOC)c2Cl)c1O` [Compound 3.12] was tested, and the inhibition at 0.1 µM [1, 4] was 40%, the “Mean Catalepsy Descent Latency (s)” value [2, 5] was 16 ± 4.2^+++ s and the “Mean Centre Rearing Counts” value [2, 5] was 211 ± 65 counts. For the same compound, the “reversal of AMPT induced deficits in mean centre rearing counts (in words)” value (shortened to “reversal of AMPT induced deficits”) [2] was “either partially or completely reversing”, the “reversal of AMPT induced catalepsy (in words)” value ([2]; 10 mg/kg) was “substantially reversed; also recorded: effective in reversing” and the “Plasma Tyrosine Concentration” value ([3]; 1 hour post-dose) was 168 ± 20.1 nmol/mL. For the same compound, the “Plasma Tyrosine Concentration” value ([3]; 3 hours post-dose) was 289 ± 35.6 nmol/mL, the “Plasma Tyrosine Concentration” value ([3]; 6 hours post-dose) was 451 ± 72.7 nmol/mL and the “Plasma Tyrosine Concentration” value ([3]; 12 hours post-dose) was 969 ± 65.2 nmol/mL. The “Plasma Tyrosine Concentration” value ([3]; 24 hours post-dose) was 1543 ± 91.1 nmol/mL and the “Plasma Tyrosine Concentration” value ([3]; 48 hours post-dose) was 114 ± 8.0 nmol/mL.
In the case of `CS(=O)(=O)c1cc(C(F)(F)F)ccc1C(=O)C(C#N)C(=O)C1CC1` (stereo not shown) [Compound 3.15], the inhibition at 0.1 µM [1, 4] is reported as 37%, the “Mean Catalepsy Descent Latency (s)” value [2, 6] is reported as 23 ± 8.0^+++ s and the “Mean Centre Rearing Counts” value [2, 6] is reported as 199 ± 54 counts. The “reversal of AMPT induced deficits” value [2] was “either partially or completely reversing”, the “reversal of AMPT induced catalepsy (in words)” value ([2]; 10 mg/kg) was “substantially reversed; also recorded: effective in reversing” and the “Plasma Tyrosine Concentration” value ([3]; 1 hour post-dose) was 177 ± 21.7 nmol/mL. For the same compound, the “Plasma Tyrosine Concentration” value ([3]; 3 hours post-dose) was 299 ± 18.8 nmol/mL, the “Plasma Tyrosine Concentration” value ([3]; 6 hours post-dose) was 458 ± 29.4 nmol/mL and the “Plasma Tyrosine Concentration” value ([3]; 12 hours post-dose) was 671 ± 119.7 nmol/mL. The “Plasma Tyrosine Concentration” value ([3]; 24 hours post-dose) was 228 ± 76.6 nmol/mL and the “Plasma Tyrosine Concentration” value ([3]; 48 hours post-dose) was 117 ± 11.3 nmol/mL.
With `CS(=O)(=O)c1ccc(C(=O)C2C(=O)CCCC2=O)c(Cl)c1COCC(F)(F)F` [Compound 3.18] the inhibition at 0.1 µM [1] was 31%, the “Mean Centre Rearing Counts” value [2, 7] was 359 ± 116^+ counts and the “reversal of AMPT induced catalepsy (in words)” value ([2]; 10 mg/kg) was “substantially reversed; also recorded: effective in reversing”. For the same compound, the “reversal of AMPT induced deficits” value ([2]; 10 mg/kg) was “reached statistical significance; also recorded: either partially or completely reversing”, the “Plasma Tyrosine Concentration” value ([3]; 1 hour post-dose) was 177 ± 3.5 nmol/mL and the “Plasma Tyrosine Concentration” value ([3]; 3 hours post-dose) was 303 ± 3.9 nmol/mL. The “Plasma Tyrosine Concentration” value ([3]; 6 hours post-dose) was 504 ± 29.4 nmol/mL, the “Plasma Tyrosine Concentration” value ([3]; 12 hours post-dose) was 1027 ± 62.7 nmol/mL and the “Plasma Tyrosine Concentration” value ([3]; 24 hours post-dose) was 1987 ± 133.0 nmol/mL. The “Plasma Tyrosine Concentration” value ([3]; 48 hours post-dose) was 313 ± 216.6 nmol/mL.
`Cc1c(C(=O)C2C=NN(C)C2=O)ccc(S(C)(=O)=O)c1C1=NOCC1` (stereo not shown) [Compound 3.20] was tested, and the inhibition at 0.1 µM [1] was 57%, the “Mean Catalepsy Descent Latency (s)” value [2, 5] was 8 ± 1.8^+++ s and the “Mean Centre Rearing Counts” value [2, 5] was 409 ± 50^+++ counts. The “reversal of AMPT induced catalepsy (in words)” value ([2]; 10 mg/kg) was “substantially reversed; also recorded: effective in reversing”, the “reversal of AMPT induced deficits” value ([2]; 10 mg/kg) was “reached statistical significance; also recorded: either partially or completely reversing” and the “Plasma tyrosine” value ([3]; 1 hour post-dose) was 169 ± 13.6 nmol/mL. The “Plasma tyrosine” value ([3]; 2 hours post-dose) was 231 ± 30.2 nmol/mL, the “Plasma tyrosine” value ([3]; 4 hours post-dose) was 353 ± 50.9 nmol/mL and the “Plasma tyrosine” value ([3]; 6 hours post-dose) was 479 ± 40.0 nmol/mL. For the same compound, the “Plasma tyrosine” value ([3]; 12 hours post-dose) was 796 ± 44.3 nmol/mL, the “Plasma tyrosine” value ([3]; 24 hours post-dose) was 745 ± 171.8 nmol/mL and the “Plasma tyrosine” value ([3]; 48 hours post-dose) was 96 ± 1.7 nmol/mL.
In the case of `CC1(C)C(=O)C(C(=O)c2ccc(C(F)(F)F)cc2[N+](=O)[O-])C(=O)C(C)(C)C1=O` [Compound 3.23], the inhibition at 0.1 µM [1, 4] is reported as 24%, the “Mean Catalepsy Descent Latency (s)” value [2, 7] is reported as 10 ± 3.0^+++ s and the “Mean Centre Rearing Counts” value [2, 7] is reported as 273 ± 63 counts. For the same compound, the “reversal of AMPT induced deficits” value [2] was “either partially or completely reversing”, the “reversal of AMPT induced catalepsy (in words)” value ([2]; 10 mg/kg) was “substantially reversed; also recorded: effective in reversing” and the “Plasma Tyrosine Concentration” value ([3]; 1 hour post-dose) was 173 ± 22.0 nmol/mL. For the same compound, the “Plasma Tyrosine Concentration” value ([3]; 3 hours post-dose) was 307 ± 28.0 nmol/mL, the “Plasma Tyrosine Concentration” value ([3]; 6 hours post-dose) was 502 ± 37.5 nmol/mL and the “Plasma Tyrosine Concentration” value ([3]; 12 hours post-dose) was 1041 ± 88.5 nmol/mL. The “Plasma Tyrosine Concentration” value ([3]; 24 hours post-dose) was 1835 ± 444.1 nmol/mL and the “Plasma Tyrosine Concentration” value ([3]; 48 hours post-dose) was 299 ± 202.8 nmol/mL.
For `Cc1nc(C(F)(F)F)ccc1C(=O)C1C(=O)C2CCC(C2)C1=O.[K+]` (stereo not shown) [Compound 3.24], the inhibition at 0.1 µM [1] was 5%, the inhibition at 0.3 µM ([1]; read-out: % inhibition at 300 nM) was 34% and the “Mean Catalepsy Descent Latency (s)” value [2, 7] was 15 ± 8.9^+++ s. The “Mean Centre Rearing Counts” value [2, 7] was 189 ± 36 counts, the “reversal of AMPT induced deficits” value [2] was “either partially or completely reversing” and the “reversal of AMPT induced catalepsy (in words)” value ([2]; 10 mg/kg) was “substantially reversed; also recorded: effective in reversing”. For the same compound, the “Plasma Tyrosine Concentration” value ([3]; 1 hour post-dose) was 184 ± 27.8 nmol/mL, the “Plasma Tyrosine Concentration” value ([3]; 3 hours post-dose) was 313 ± 49.9 nmol/mL and the “Plasma Tyrosine Concentration” value ([3]; 6 hours post-dose) was 548 ± 83.9 nmol/mL. The “Plasma Tyrosine Concentration” value ([3]; 12 hours post-dose) was 1008 ± 85.2 nmol/mL, the “Plasma Tyrosine Concentration” value ([3]; 24 hours post-dose) was 2110 ± 111.1 nmol/mL and the “Plasma Tyrosine Concentration” value ([3]; 48 hours post-dose) was 2571 ± 167.7 nmol/mL.
